Results reported in the supplement of paper PMC10307832.

Assays:
Assay in all cases: relative viability (nuclei count vs DMSO), 5 days (fraction); higher = more cells survive
VE-821 + OSI-027 = compound: CS(=O)(=O)c1ccc(-c2cnc(N)c(C(=O)Nc3ccccc3)n2)cc1 [VE-821] + COc1cccc2cc(-c3nc([C@H]4CC[C@H](C(=O)O)CC4)n4ncnc(N)c34)[nH]c12 [OSI-027] (partner 0.5 µM)
Method in brief: (§1)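 For relative viability, nuclei counts in treated wells were divided by those in vehicle wells. Lung cancer cell lines had been pin-tool dosed in 1536-well plates the day after seeding and cultured for 5 days, then fixed and stained in one step (final 0.05% Triton X-100, 1% formaldehyde, 1 ug/ml Hoechst) and imaged at 4×. Doses were one drug alone or a fixed anchor-drug dose plus five library-drug doses (not always all listed) in √10 steps, and values are duplicate-plate medians.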

VE-821 + Decitabine = compound: CS(=O)(=O)c1ccc(-c2cnc(N)c(C(=O)Nc3ccccc3)n2)cc1 [VE-821] + Nc1ncn([C@H]2C[C@H](O)[C@@H](CO)O2)c(=O)n1 [Decitabine] (partner 2 µM)
Method in brief: as §1

Vismodegib + Navitoclax = compound: CS(=O)(=O)c1ccc(C(=O)Nc2ccc(Cl)c(-c3ccccn3)c2)c(Cl)c1 [Vismodegib] + CC1(C)CCC(c2ccc(Cl)cc2)=C(CN2CCN(c3ccc(C(=O)NS(=O)(=O)c4ccc(N[C@H](CCN5CCOCC5)CSc5ccccc5)c(S(=O)(=O)C(F)(F)F)c4)cc3)CC2)C1 [Navitoclax] (partner 0.5 µM)
Method in brief: as §1

Vismodegib + AZD7762 = compound: CS(=O)(=O)c1ccc(C(=O)Nc2ccc(Cl)c(-c3ccccn3)c2)c(Cl)c1 [Vismodegib] + NC(=O)Nc1cc(-c2cccc(F)c2)sc1C(=O)N[C@H]1CCCNC1 [AZD7762] (partner 0.2 µM)
Method in brief: as §1

| Cell Line | relative viability (VE-821 + OSI-027; first compound 0.08 µM) | relative viability (VE-821 + OSI-027; first compound 0.253 µM) | relative viability (VE-821 + OSI-027; first compound 0.8 µM) | relative viability (VE-821 + OSI-027; first compound 2.53 µM) | relative viability (VE-821 + OSI-027; first compound 8 µM) | relative viability (VE-821 + Decitabine; first compound 0.08 µM) | relative viability (VE-821 + Decitabine; first compound 0.253 µM) | relative viability (VE-821 + Decitabine; first compound 0.8 µM) | relative viability (VE-821 + Decitabine; first compound 2.53 µM) | relative viability (VE-821 + Decitabine; first compound 8 µM) | relative viability (Vismodegib + Navitoclax; first compound 0.08 µM) | relative viability (Vismodegib + Navitoclax; first compound 0.253 µM) | relative viability (Vismodegib + Navitoclax; first compound 0.8 µM) | relative viability (Vismodegib + Navitoclax; first compound 2.53 µM) | relative viability (Vismodegib + Navitoclax; first compound 8 µM) | relative viability (Vismodegib + AZD7762; first compound 0.08 µM) | relative viability (Vismodegib + AZD7762; first compound 0.253 µM) | relative viability (Vismodegib + AZD7762; first compound 0.8 µM) | relative viability (Vismodegib + AZD7762; first compound 2.53 µM) | relative viability (Vismodegib + AZD7762; first compound 8 µM) |
| --- | --- | --- | --- | --- | --- | --- | --- | --- | --- | --- | --- | --- | --- | --- | --- | --- | --- | --- | --- | --- |
| NCI-H460 | 0.814 | 0.628 | 0.409 | 0.292 | 0.0463 | 0.554 | 0.543 | 0.366 | 0.276 | 0.0965 | 1.01 | 0.995 | 1.28 | 1.06 | 1.21 | 0.583 | 0.56 | 0.576 | 0.535 | 0.724 |
| NCI-H2126 | 0.757 | 0.651 | 0.645 | 0.59 | 0.49 | 0.523 | 0.576 | 0.577 | 0.588 | 0.528 | 0.838 | 0.846 | 0.864 | 0.802 | 0.766 | 1.08 | 0.912 | 0.978 | 0.933 | 1.03 |
| H3255 | 0.603 | 0.584 | 0.637 | 0.606 | 0.566 | 0.655 | 0.551 | 0.614 | 0.752 | 0.596 | 0.614 | 0.441 | 0.462 | 0.439 | 0.518 | 0.951 | 0.886 | 0.818 | 0.785 | 0.853 |
| NCI-H441 | 0.718 | 0.641 | 0.644 | 0.72 | 0.583 | 0.305 | 0.271 | 0.226 | 0.258 | 0.271 | 0.808 | 0.734 | 0.722 | 0.554 | 0.689 | 1.1 | – | 1.05 | 1.01 | 1.03 |
| NCI-H2347 | 0.361 | 0.399 | 0.404 | 0.446 | 0.376 | 0.624 | 0.595 | 0.678 | 0.693 | 0.723 | 0.735 | 0.821 | 0.766 | 0.763 | 0.792 | 0.774 | 0.718 | 0.782 | 0.83 | 0.799 |
| HCC-827 | 0.845 | 0.865 | 0.886 | 0.838 | 0.683 | 0.347 | 0.344 | 0.357 | 0.352 | 0.357 | 1.03 | 1.04 | 0.961 | 1.03 | 1.02 | 0.278 | 0.183 | 0.258 | 0.168 | 0.169 |
| A-427 | 0.514 | 0.418 | 0.391 | 0.412 | 0.286 | 0.592 | 0.53 | 0.587 | 0.572 | 0.442 | 0.988 | 0.897 | 0.889 | 1 | 0.976 | 0.739 | 0.706 | 0.805 | 0.619 | 0.801 |
| NCI-H727 | 0.721 | 0.624 | 0.619 | 0.54 | 0.355 | 0.865 | 0.799 | 0.952 | 0.916 | 0.751 | 0.496 | 0.428 | 0.453 | 0.36 | 0.386 | 0.594 | 0.691 | 0.677 | 0.448 | 0.661 |
| NCI-H1793 | 0.247 | 0.305 | 0.232 | 0.272 | 0.242 | 0.55 | 0.468 | – | 0.637 | 0.461 | – | 0.481 | 0.504 | 0.522 | 0.373 | – | 0.569 | 0.409 | 0.389 | 0.327 |
| NCI-H23 | 0.486 | 0.531 | 0.483 | 0.624 | 0.331 | 0.304 | 0.35 | 0.289 | 0.36 | 0.245 | 0.89 | 0.735 | 0.926 | 0.811 | 0.86 | 0.264 | 0.34 | 0.276 | 0.23 | 0.232 |
| NCI-H1395 | 0.684 | 0.605 | 0.607 | 0.639 | 0.484 | 0.733 | 0.672 | 0.74 | 0.74 | 0.638 | 1.02 | 1.09 | 1.01 | 1.11 | 1.23 | 0.42 | 0.397 | 0.412 | 0.455 | 0.41 |
| NCI-H2170 | 0.638 | 0.757 | 0.732 | 0.648 | 0.636 | 0.515 | 0.469 | 0.487 | 0.434 | 0.295 | 0.683 | 0.602 | 0.755 | 0.473 | 0.617 | 0.913 | 0.838 | 0.974 | 0.866 | 0.909 |
| LOU-NH91 | 0.731 | 0.71 | 0.766 | 0.778 | 0.747 | 0.833 | 0.813 | 0.812 | 0.836 | 0.805 | 0.618 | 0.686 | 0.687 | 0.672 | 0.747 | 0.802 | 0.752 | 0.727 | 0.771 | 0.789 |
| NCI-H647 | 0.748 | 0.786 | 0.676 | 0.509 | 0.376 | 0.401 | 0.5 | 0.385 | 0.385 | 0.235 | – | 1.02 | 1.18 | 1.03 | 1.28 | 0.474 | 0.482 | 0.415 | 0.375 | 0.51 |
| LXF-289 | 0.949 | 0.726 | 0.902 | 0.971 | 0.759 | 0.426 | 0.413 | 0.467 | 0.437 | 0.556 | 0.919 | 0.931 | 0.935 | 0.917 | 0.917 | 1.02 | 1.1 | 1.1 | 1.09 | 1.08 |
| PC-3 [JPC-3] | 0.89 | 0.724 | 0.887 | 0.829 | 0.749 | 0.87 | 0.832 | 0.95 | 0.912 | 0.799 | 0.758 | 0.789 | 0.769 | 0.768 | 0.778 | 0.824 | 0.715 | 0.743 | 0.729 | 0.708 |
